Columns and labels:
UGT1A4 = molecular target: T1, UGT1A4 (Homo sapiens, UniProt P22310); assay: Prediction of DDI risk (AUCi/AUC) from in vitro data, UGT1A4 substrates; set-up: purchased BD Gentest (Woburn, MA); host or cells: baculovirus-infected insect cells; conditions: fm is 1
T1 sequence (P22310 29-534): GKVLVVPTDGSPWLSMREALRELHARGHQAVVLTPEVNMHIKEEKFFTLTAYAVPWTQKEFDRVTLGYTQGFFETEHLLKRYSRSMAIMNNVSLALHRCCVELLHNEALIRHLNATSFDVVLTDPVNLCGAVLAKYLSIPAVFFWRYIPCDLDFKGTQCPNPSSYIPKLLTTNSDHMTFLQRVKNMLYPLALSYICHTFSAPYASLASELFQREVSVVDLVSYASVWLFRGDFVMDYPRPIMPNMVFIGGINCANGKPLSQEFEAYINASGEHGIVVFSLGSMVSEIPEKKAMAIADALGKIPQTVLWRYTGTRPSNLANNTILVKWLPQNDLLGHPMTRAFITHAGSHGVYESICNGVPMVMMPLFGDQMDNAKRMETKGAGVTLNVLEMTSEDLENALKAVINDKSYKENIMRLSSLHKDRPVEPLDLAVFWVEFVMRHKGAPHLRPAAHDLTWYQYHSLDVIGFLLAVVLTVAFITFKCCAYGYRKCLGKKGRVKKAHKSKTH
Experimental: The ratio was calculated based on the eq.

UGT1A1 [1] = molecular target: T2, UGT1A1 (Homo sapiens, UniProt P22309); conditions: SN-38 substrate
T2 sequence (P22309 26-533): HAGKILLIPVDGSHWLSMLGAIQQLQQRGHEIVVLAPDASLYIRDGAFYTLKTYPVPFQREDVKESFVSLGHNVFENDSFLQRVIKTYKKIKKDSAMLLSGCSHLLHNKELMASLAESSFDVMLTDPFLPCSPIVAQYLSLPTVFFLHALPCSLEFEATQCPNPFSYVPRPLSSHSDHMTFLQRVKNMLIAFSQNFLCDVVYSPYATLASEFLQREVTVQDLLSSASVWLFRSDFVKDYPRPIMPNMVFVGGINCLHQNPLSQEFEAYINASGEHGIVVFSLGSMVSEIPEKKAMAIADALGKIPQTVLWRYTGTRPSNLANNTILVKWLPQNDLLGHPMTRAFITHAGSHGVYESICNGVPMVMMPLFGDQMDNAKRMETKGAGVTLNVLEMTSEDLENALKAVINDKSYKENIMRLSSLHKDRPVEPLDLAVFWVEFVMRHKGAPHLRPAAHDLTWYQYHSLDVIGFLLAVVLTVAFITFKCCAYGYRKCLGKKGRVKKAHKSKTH
Experimental: SN-38 glucuronidation activity was determined with a slight modification of a previously published method[13].

UGT1A1 [2] = molecular target: T2, UGT1A1; conditions: fm is 1; clinical doses
UGT1A9 = molecular target: T3, UGT1A9 (Homo sapiens, UniProt O60656); conditions: 4-MU substrate
T3 sequence (O60656 26-530): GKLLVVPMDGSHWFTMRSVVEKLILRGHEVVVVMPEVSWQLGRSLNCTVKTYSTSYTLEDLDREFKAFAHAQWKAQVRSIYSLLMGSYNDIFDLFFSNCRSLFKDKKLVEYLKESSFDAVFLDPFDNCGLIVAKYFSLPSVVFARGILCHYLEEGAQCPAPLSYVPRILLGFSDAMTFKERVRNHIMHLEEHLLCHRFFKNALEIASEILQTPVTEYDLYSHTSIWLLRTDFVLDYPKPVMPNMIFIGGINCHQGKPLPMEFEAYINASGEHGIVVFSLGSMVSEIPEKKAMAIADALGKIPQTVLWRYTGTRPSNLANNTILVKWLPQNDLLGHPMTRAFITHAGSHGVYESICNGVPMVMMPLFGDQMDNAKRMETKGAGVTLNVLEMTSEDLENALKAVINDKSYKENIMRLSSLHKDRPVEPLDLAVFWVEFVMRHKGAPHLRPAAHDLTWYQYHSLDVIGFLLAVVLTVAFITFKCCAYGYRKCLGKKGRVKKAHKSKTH

CNC(=O)c1ccccc1Sc1ccc2c(/C=C/c3ccccn3)n[nH]c2c1 [Axitinib, axitinib]
Predicted AUCi/AUC ratio of UGT1A4 substrates (UGT1A4): ~1

CS(=O)(=O)CCNCc1ccc(-c2ccc3ncnc(Nc4ccc(OCc5cccc(F)c5)c(Cl)c4)c3c2)o1 [Lapatinib, lapatinib]
inhibition type, UGT1A1 (UGT1A1 [1]): non-competitive
Predicted increase in AUC of UGT1A1 substrates (4-MU and SN-38) (UGT1A1 [2]): ~ 25%

COc1cc2c(Nc3ccc(Br)cc3F)ncnc2cc1OCC1CCN(C)CC1 [Vandetanib, vandetanib]
inhibition type, UGT1A9 (UGT1A9): mixed
